From patent publication US6683184B2, “Piperazine derivatives and process for the preparation thereof” (Samjin Pharmaceutical Co., Ltd., priority 1999, dated 2004)
≈ marks a conversion by molar mass, not a printed value.

How the values were obtained:
Assay type in all cases: cell-based
[1] = test system: HCT-15 (human colon); assay: In vitro antitumor effect against human tumor cell lines, SRB assay, HCT-15; conditions: HCT 15 cells, 48 hours; for IC50: Homo sapiens, read-out: ED50 HCT 15
Protocol: (§1) In vitro antitumor effect against human tumor cell lines.
(§2) a. Human solid tumor cell lines, A549(non-small lung cell), SKMEL-2(melanoma), HCT-15(colon), SKOV-3(ovarian), XF-498(CNS) were cultured at 37° C. in 5% CO2 incubators using RPMI 1640 media containing 10% FBS, while they were transfer-cultured successively once or twice per week. Cell cultures were dissolved in a solution of 0.25% trypsin and 3 mM CDTA PBS(−) and then cells were separated from media which the cells were sticked on.
(§3) b. 5×10^3˜2×10^4 cells were added into each well of 96-well plate and cultured in 5% CO2 incubator, at 37° C., for 24 hours.
(§4) c. Each sample drug was dissolved in a little DMSO and diluted with the used medium to a prescribed concentration for experiments, wherein the final concentration of DMSO was controlled below 0.5%.
(§5) d. Medium of each well cultured for 24 hours as above b. was removed by aspiration. Each 200 μl of drug samples prepared in c. was added into each well and the wells were cultured for 48 hours. Tz(time zero) plates were collected at the point of time drugs were added.
(§6) e. According to the SRB assay method, cell fixing with TCA, staining with 0.4% SRB solution, washing with 1% acetic acid and elution of dye with 10 mM Tris solution were carried out on Tz plates and culture-ended plates, whereby OD values were measured at 520 nm.
(§7) a. Time zero(Tz) value was determined with measuring the SRB protein amounts of the Tz plates collected at the point of time drugs were added.
(§8) b. Control value(C) was determined with the OD values of wells untreated with a drug.
(§9) c. Drug-treated test value(T) was determined with the OD values of drug-treated wells.
(§10) d. Effects of drugs were estimated with growth stimulation, net growth inhibition, net killing etc., being calculated from Tz, C and T.
(§11) e. If T≧Tz, cellular response function was calculated by 100×(T−Tz)/(C−Tz), and if T<Tz, by 100×(T−Tz)/Tz.

[2] = test system: SKOV-3 (human ovarian); assay: In vitro antitumor effect against human tumor cell lines, SRB assay, SKOV-3; conditions: SK-OV-3 cells, 48 hours; for IC50: Homo sapiens, read-out: ED50 SK-OV-3
Protocol: as §1, §2, §3, §4, §5, §6, §7, §8, §9, §10, §11

[3] = test system: SKMEL-2 (human melanoma); assay: In vitro antitumor effect against human tumor cell lines, SRB assay, SKMEL-2; conditions: SK-MEL-2 cells, 48 hours; for IC50: Homo sapiens, read-out: ED50 SK-MEL-2
Protocol: as §1, §2, §3, §4, §5, §6, §7, §8, §9, §10, §11

[4] = test system: P388 (mouse lymphoid neoplasma cell); assay: In vitro antitumor effects against animal leukemia cells, dye exclusion assay; conditions: 48 hours, trypan blue dye exclusion, read-out: P388 (IC50, concentration showing 50% cell growth inhibition compared with the control)
Protocol: In vitro antitumor effects against animal leukemia cells.
Tumor cell line: P388 (mouse lymphoid neoplasma cell)
B. Method: Dye Exclusion Assay.
1) Concentrations of P388 cells being cultured in RPMI 1640 media containing 10% FBS were regulated to 1×10^6 cells/ml.
2) Sample drugs of respective concentrations diluted in the ratio of log doses were added into each cell culture and cultured at 37° C., for 48 hours, in […] incubator, and then viable cell numbers were measured by dye exclusion test using trypan blue.

[5] = test system: A549 (human non-small lung cell); assay: In vitro antitumor effect against human tumor cell lines, SRB assay, A549; conditions: A549 cells, 48 hours; for IC50: Homo sapiens, read-out: ED50 A 549
Protocol: as §1, §2, §3, §4, §5, §6, §7, §8, §9, §10, §11

[6] = test system: XF 498 (human CNS); assay: In vitro antitumor effect against human tumor cell lines, SRB assay, XF 498; conditions: 48 hours; for IC50: Homo sapiens, XF498, XF-498 cells, read-out: ED50 XF-498; for ED50 XF-498: XF-498 cells
Protocol: as §1, §2, §3, §4, §5, §6, §7, §8, §9, §10, §11

| Compound | IC50 [1] [ng/mL] | IC50 [2] [ng/mL] | IC50 [3] [ng/mL] | IC50 [4] [ng/mL] | IC50 [5] [ng/mL] | IC50 [6] [ng/mL] | ED50 HCT 15 [1] [ng/mL] | ED50 SK-OV-3 [2] [ng/mL] | ED50 SK-MEL-2 [3] [ng/mL] | ED50 A 549 [5] [ng/mL] | ED50 XF-498 [6] [ng/mL] |
| --- | --- | --- | --- | --- | --- | --- | --- | --- | --- | --- | --- |
| COc1nc(C)c(C)nc1N(C)C(=O)N1CCN(c2cc(Cl)cc(Cl)c2)CC1 [Example 21, 1-[(5,6-Dimethyl-2-methoxypyrazin-3-yl)N-methylaminocarbonyl]-4-(3,5-dichlorophenyl)piperazine] | 8 (≈ 0.0189 µM) | 93 (≈ 0.219 µM) | 24 (≈ 0.0566 µM) | 800 (≈ 1.89 µM) | 38 (≈ 0.0896 µM) | 97 (≈ 0.229 µM) |  |  |  |  |  |
| COc1cc(OC)cc(N2CCN(C(=O)N(C)c3nc(C)c(C)nc3OC)CC2)c1 [Example 19, 1-[(5,6-Dimethyl-2-methoxypyrazin-3-yl)N-methylaminocarbonyl]-4-(3,5-dimethoxyphenyl)piperazine] | 80 (≈ 0.193 µM) | 143 (≈ 0.344 µM) | 43 (≈ 0.103 µM) | 200 (≈ 0.481 µM) | 6.4 (≈ 0.0154 µM) | 93 (≈ 0.224 µM) |  |  |  |  |  |
| COc1ccccc1N1CCN(C(=O)Nc2nc(C)c(C)nc2OC)CC1 [Example 2, 1-[(5,6-Dimethyl-2-methoxypyrazin-3-yl)aminocarbonyl]-4-(2-methoxyphenyl)piperazine] | 19 (≈ 0.0512 µM) | 88 (≈ 0.237 µM) | 29 (≈ 0.0781 µM) | 300 (≈ 0.808 µM) | 32 (≈ 0.0862 µM) | 84 (≈ 0.226 µM) |  |  |  |  |  |
| COc1nc2ccccc2nc1NC(=O)N1CCN(c2cccc(Br)c2)CC1 [Example 45, 1-[(2-Methoxyquinoxalin-3-yl)aminocarbonyl]-4-(3-bromop-henyl)piperazine] |  |  |  |  |  |  | 0.1 (≈ 0.000226 µM) | 0.2 (≈ 0.000452 µM) | <0.1 | 0.1 (≈ 0.000226 µM) | 0.2 (≈ 0.000452 µM) |
| COc1cc(C)c(C)cc1N=C(NO)N1CCN(c2cc(C)cc(C)c2)CC1 [Example 180, N-Hydroxy-N′-(4,5-dimethyl-2-methoxyphenyl-1-yl)-[4-(3,5-dimethylphenyl)piperazin-1-yl]carboxyimidamide] |  |  |  |  |  |  | 160 (≈ 0.418 µM) | 160 (≈ 0.418 µM) | 310 (≈ 0.81 µM) | 280 (≈ 0.732 µM) | 240 (≈ 0.627 µM) |
| COC(=O)c1cc(N=C(NO)N2CCN(c3cc(F)cc(F)c3)CC2)c(OC)nc1C [Example 120, N-Hydroxy-N′-(5-methoxycarbonyl-2-methoxy-6-methylpyridin-3-yl)-[4-(3,5-difluorophenyl)piperazin-1-yl]carboxyimidamide] |  |  |  |  |  |  | 300 (≈ 0.689 µM) | 730 (≈ 1.68 µM) | 280 (≈ 0.643 µM) | 640 (≈ 1.47 µM) | 820 (≈ 1.88 µM) |
| COc1nc2ccccc2nc1NC(=O)N1CCN(c2cc(F)cc(F)c2)CC1 [Example 46, 1-[(2-Methoxyquinoxalin-3-yl)aminocarbonyl]-4-(3,5-difluo-rophenyl)piperazine] |  |  |  |  |  |  | 2 (≈ 0.00501 µM) | 7 (≈ 0.0175 µM) | 3 (≈ 0.00751 µM) | 2 (≈ 0.00501 µM) | 1 (≈ 0.0025 µM) |
| COc1cc(OC)cc(N2CCN(C(=O)Nc3cc4ccccc4cc3OC)CC2)c1 [Example 87, 1-[(2-Methoxynaphth-3-yl)aminocarbonyl]-4-(3,5-dimethoxyphenyl)piperazine] | 8 (≈ 0.019 µM) | 30 (≈ 0.0712 µM) | 660 (≈ 1.57 µM) |  | 10 (≈ 0.0237 µM) | 80 (≈ 0.19 µM) |  |  |  |  |  |
| COc1cc(OC)cc(N2CCN(C(=Nc3cc(C)c(C)cc3OC)NO)CC2)c1 [Example 181, N-Hydroxy-N′-(4,5-dimethyl-2-methoxyphenyl-1-yl)-[4-(3,5-dimethoxyphenyl)piperazin-1-yl]carboxyimidamide] |  |  |  |  |  |  | 20 (≈ 0.0483 µM) | 60 (≈ 0.145 µM) | 110 (≈ 0.265 µM) | 130 (≈ 0.314 µM) | 40 (≈ 0.0965 µM) |
| N.N.[Cl][Pt][Cl] [Cisplatin, reference compound] |  |  |  |  |  |  | 3170 | 1320 | 870 | 910 | 770 |
| COc1nc(C)c(C(C)O)cc1N=C(NO)N1CCN(c2cc(C)cc(C)c2)CC1 (stereo not drawn) [Example 138, N-Hydroxy-N′-[5-(1-hydroxyethyl)-2-methoxy-6-methylpyridin-3-yl]-[4-(3,5-dimethylphenyl)piperazin-1-yl]carboxyimidamide] |  |  |  |  |  |  | 6 (≈ 0.0145 µM) | 30 (≈ 0.0725 µM) | 16 (≈ 0.0387 µM) | 74 (≈ 0.179 µM) | 18 (≈ 0.0435 µM) |
| COC(=O)c1cc(N=C(NO)N2CCN(c3cc(OC)cc(OC)c3)CC2)c(OC)nc1C [Example 118, N-Hydroxy-N′-(5-methoxycarbonyl-2-methoxy-6-methylpyridin-3-yl)-[4-(3,5-dimethoxyphenyl)piperazin-1-yl]carboxyimidamide] |  |  |  |  |  |  | 0.2 (≈ 0.000435 µM) | 32 (≈ 0.0696 µM) | 19 (≈ 0.0413 µM) | 57 (≈ 0.124 µM) | 17 (≈ 0.037 µM) |
| COc1nc(C)c(C)nc1NC(=O)N1CCN(c2cc(Cl)cc(Cl)c2)CC1 [Example 11, 1-[(5,6-Dimethyl-2-methoxypyrazin-3-yl)aminocarbonyl]-4-(3,5-dichlorophenyl)piperazine] |  |  |  | 20 (≈ 0.0487 µM) |  |  |  |  |  |  |  |
| COc1cc(OC)cc(N2CCN(C(=Nc3cc(C(C)O)c(C)nc3OC)NO)CC2)c1 (stereo not drawn) [Example 139, N-Hydroxy-N′-[5-(1-hydroxyethyl)-2-methoxy-6-methylpyridin-3-yl]-[4-(3,5-dimethoxyphenyl)piperazin-1-yl]carboxyimidamide] |  |  |  |  |  |  | 0.4 (≈ 0.000898 µM) | 0.7 (≈ 0.00157 µM) | 0.2 (≈ 0.000449 µM) | 0.7 (≈ 0.00157 µM) | 0.3 (≈ 0.000673 µM) |
| COc1nc2ccccc2nc1NC(=O)N1CCN(c2ccccc2C(C)C)CC1 [Example 40, 1-[(2-Methoxyquinoxalin-3-yl)aminocarbonyl]-4-(2-isoprop-ylphenyl)piperazine] | 390 (≈ 0.962 µM) | 1010 (≈ 2.49 µM) | 370 (≈ 0.912 µM) |  | 410 (≈ 1.01 µM) | 810 (≈ 2 µM) |  |  |  |  |  |
| COc1cc(OC)cc(N2CCN(C(=O)N(C)c3nc4ccccc4nc3OC)CC2)c1 [Example 53, 1-[(2-Methoxyquinoxalin-3-yl) N-methylaminocarbonyl]-4-(3,5-dimethoxyphenyl)piperazine] | 50 (≈ 0.114 µM) | 210 (≈ 0.48 µM) | 930 (≈ 2.13 µM) |  | 170 (≈ 0.389 µM) | 270 (≈ 0.617 µM) |  |  |  |  |  |
| COc1nc(C)c(C(C)=O)cc1N=C(NO)N1CCN(c2cc(C)cc(C)c2)CC1 [Example 132, N-Hydroxy-N′-(5-acetyl-2-methoxy-6-methylpyridin-3-yl)-[4-(3,5-dimethylphenyl)piperazin-1-yl]carboxyimidamide] |  |  |  |  |  |  | 1 (≈ 0.00243 µM) | 7 (≈ 0.017 µM) | 1 (≈ 0.00243 µM) | 11 (≈ 0.0267 µM) | 2 (≈ 0.00486 µM) |
| CCc1nc(OC)c(N=C(NO)N2CCN(c3cc(OC)cc(OC)c3)CC2)cc1C(=O)OC [Example 159, N-Hydroxy-N′-(6-ethyl-5-methoxycarbonyl-2-methoxypyridin-3-yl)-[4-(3,5-dimethoxyphenyl)piperazin-1-yl]carboxyimidamide] |  |  |  |  |  |  | 0.6 (≈ 0.00127 µM) | 10 (≈ 0.0211 µM) | 2 (≈ 0.00422 µM) | 29 (≈ 0.0612 µM) | 6 (≈ 0.0127 µM) |
| 1-[(5,6-Dichloroethyl-2-methoxypyrazin-3-yl)aminocarbonyl]-4-(3,5-dimethoxyphenyl)piperazine [Example 35] |  |  |  |  |  |  | 0.1 | 0.7 | <0.1 | 0.1 | 0.1 |
| COc1nc(C)c(CO)cc1N=C(NO)N1CCN(c2cc(F)cc(F)c2)CC1 [Example 127, N-Hydroxy-N′-(5-hydroxymethyl-2-methoxy-6-methylpyridin-3-yl)-[4-(3,5-difluorophenyl)piperazin-1-yl]carboxyimidamide] |  |  |  |  |  |  | 2 (≈ 0.00491 µM) | 11 (≈ 0.027 µM) | 5 (≈ 0.0123 µM) | 13 (≈ 0.0319 µM) | 6 (≈ 0.0147 µM) |
